{"source": "patent US6194465A", "about": "“Benzamide therapeutics for the treatment of inflammatory bowel disease” (priority 1999, dated 2001)", "key": {"DSS-induced colitis [1]": {"tested_on": "DSS-induced colitis", "assay": "Dose-response in the Mouse Dextran Sulfate (DSS) model", "assay_type": "in vivo", "procedure": "To determine the dose-response relationship of Compound A in the DSS Mouse Model, the following procedure was used.\nExperimental conditions and statistical analyses were the same as the Mouse Dextran Sulfate IBD Model, except four groups of mice (n=8-10/group) were used. Animals were dosed orally with either Compound A (3, 10 or 30 mg/kg) or vehicle alone. In addition, the following procedure was introduced to evaluate the histology in the animals:\n5-6 slices/segment with 15-18 total pieces/colon\nScore for extent of damage: 0=1-25% involvement, 1=26-50% involvement,\n0=intact crypt, 1=loss of 1/3 crypt, 2=loss of 2/3 crypt, 3=loss of entire crypt with surface epithelium intact, 4=loss of entire crypt and erosion of surface epithelium\n0=normal, 1=focal inflammatory cell infiltrate including PMNs, 2=inflammatory cell infiltration, gland dropout and crypt abscess, 3=mucosal ulceration\nSingle, evaluator (qualified pathologist) blinded to the treatment conditions."}, "SK-N-MC cells": {"tested_on": "SK-N-MC cells", "assay": "TNF-α induced flux of reactive oxygen species (DCF fluorescence)", "assay_type": "cell-based", "conditions": "100 μM test compound, TNF-α 3.0 ng/mL", "description": "Oxidative stress agents (OSA) are thought to be involved in cell death in IBD and are key initiator in the cascade of events leading to apoptosis. The purpose of this study is to evaluate the effect of Compound A on cytokine-induced OSA flux.\nTo visualize OSA, the dye dihydrodichlorofluorescein diacetate is used. This non-fluorescent dye is taken up by cells and deacetylated to its non-fluorescent congener dihydrodichlorofluorescein (H2 DCF), which is trapped within cells. Reactive oxygen species (\"ROS\") react with H2 DCF, converting it to the highly fluorescent DCF. DCF fluorescence can be measured spectrofluorometrically and can also be visualized in intact cells using fluorescent microscopy.\nSK-N-MC cells (American Type Culture Collection, Rockville, Md.) were plated at 250,000 cells/well in 24-well Corning plates. Following plating, the cells were maintained in retinoic acid medium (5 μM) for five days and then treated with at test compound at 100 μM for 1 hour prior to TNF-α (3.0 ng/mL) treatment. […] Following incubation, cultures were read in a cytofluorometer at 485-530 nm wavelength to detect increased DCF formation. Relative fluorescence units (RFU) values for the respective treatment conditions were compared. In this assay, higher fluorescence readings indicate ROS production. Thus, reductions in fluorescence indicates reduction in ROS production."}, "[2]": {"assay": "PK parameter estimates, 30 mg/kg po (Table 1)", "assay_type": "in vivo, rats", "conditions": "additional series of bioavailability experiments", "procedure": "The bioavailability of compound N is depicted in FIG. 10 as well. |(NRTs Dosed 30 mg/kg po in 1% Methyl Cellulose, n = 3 rats/NRT)"}, "[3]": {"tested_on": "Myeloperoxidase (MPO) activity", "assay": "MPO activity of colon tissue in TNBS model (IV dosing)", "assay_type": "in vivo, Male Sprague-Dawley rats", "procedure": "Male Sprague-Dawley rats (200-250 g) were housed in standard cages (2 per cage) and fed rat chow and tap water ad libitum. After an overnight fast, rats were brought into the laboratory and randomized into treatment groups. Colitis was induced by intrarectal administration of 0.5 ml of TNBS solution (50 mg/kg in 50% ethanol) using a 1 ml syringe attached to a 5 cm polyethylene catheter. Control animals received saline (0.9%) or a 1 % methyl cellulose suspension at identical time points.\nMyeloperoxidase (\"MPO\") activity is measured as an index of the intensity of the inflammatory response. In order to determine the MPO activity, a blind study of 300 mg samples of colon tissue were analyzed. This assay uses the spectrophotometric method of Castro et al.\nFor PO (oral) dosing, Compound A was administered by oral gavage 30 mg/kg as a 1% carboxy methyl cellulose (\"CMC\") suspension 1 hour prior to the administration of TNBS. Control rats were given CMC only. For IV (intravenous) dosing, Compound A was administered 30 mg/kg by tail vein injection in a 75% PEG/25 % water solution 1 hour prior to administration of TNBS. Control rats were given an injection of 75% PEG/25 % water only. Six rats were dosed for each route of administration.\nMPO activity measurements were performed only for samples from the IV administration."}, "DSS-induced colitis [4]": {"tested_on": "DSS-induced colitis", "assay": "Mouse Dextran Sulfate (DSS) IBD model", "assay_type": "in vivo, Swiss-Webster mice", "procedure": "Another model used for screening candidate IBD-treating compounds is the Dextran Sulfate (\"DSS\") model. Similar to the TNBS model, DSS induced colitis is widely used as a screening tool for IBD therapeutics. When administered orally, DSS induces IBD-like symptoms in Swiss-Webster mice. This model is used to determine the effectiveness of compounds of this invention when such compounds are administered orally (p.o.)\nIndividually housed 30-40 g male Swiss-Webster mice (B & K Universal, Fremont, Calif.) received 3% DSS (Sigma Chemicals, St. Louis, Mo.) in their drinking water for 7 days. All animals received food and water ad libitum.\nTwo groups of mice were dosed orally with either Compound A in a dosing vehicle (1% methyl cellulose, dose range of 10 mg/kg to 30 mg/kg) or dosing vehicle alone (control).\nClinical signs of colitis were assessed by a disease activity index (\"DAI\") consisting of changes in stool characteristics, fecal occult bleeding and body weight loss. The DAI is very similar to the Crohn's Disease Activity Index used in clinical trials to evaluate new agents to prevent/treat IBD. The DAI data were analyzed using Proc Anova in SAS with a Bonferoni post-hoc analysis, and Model 108 in WinNonlin™ (Professional Version 1.5, Scientific Consulting, Apex, NC) for the ED50 and Emax values. The wet weight and myeloperoxidase (\"MPO\") data (collected only on Day 7) were analyzed by Proc TTest in SAS. MPO is a marker for neutrophil infiltration.\nStool Characteristic: 0=normal, 2=loose and 4=diarrhea\nFecal Occult Blood: 0=negative, 2=positive, 4=gross bleeding\nTwo strips of colonic tissue/mouse\nMPO activity by spectrophotometric assay"}, "[5]": {"assay": "Plasma concentration time course after oral administration", "assay_type": "in vivo, rats"}}, "data": [{"smiles": "CC(=O)Nc1ccc(C(=O)NC(C)(C)C)cc1", "note": "[Compound A, N-tert-butyl-4-acetamidobenzamide]", "values": [{"measurement": "protective effect, significance by day", "setting": "DSS-induced colitis [1]; oral", "result": "statistically significant on days 3, 4, 5 and 7"}, {"measurement": "DAI score, protective effect (in words)", "setting": "DSS-induced colitis [1]; oral, 3, 10 or 30 mg/kg", "result": "marked dose-dependent protective effect"}, {"measurement": "DAI score, significance by dose", "setting": "DSS-induced colitis [1]; oral, 3, 10 or 30 mg/kg", "result": "statistically significant at 30 mg/kg"}, {"measurement": "MPO values (in words), dose-response study", "setting": "DSS-induced colitis [1]; oral, 3, 10 or 30 mg/kg", "result": "the protection was not statistically significant"}, {"measurement": "wet weight (in words), dose-response study", "setting": "DSS-induced colitis [1]; oral, 3, 10 or 30 mg/kg", "result": "the protection was not statistically significant"}, {"measurement": "ROS induction by TNF-α", "setting": "SK-N-MC cells", "result": "significantly reduced these effects"}, {"measurement": "bioavailability (in words)", "setting": "[2]", "result": "excellent bioavailability"}, {"measurement": "protection from TNBS insult as measured by MPO activity (in words)", "setting": "[3]; IV", "result": "provided protection from the TNBS insult"}, {"measurement": "MPO Activity", "setting": "[3]; IV treatment, 30 mg/kg, TNBS model", "result": "1.77 ± 0.53", "unit": "units/mg"}, {"measurement": "MPO values (in words)", "setting": "DSS-induced colitis [4]; Day 7", "result": "the protection was not statistically significant"}, {"measurement": "wet weight (in words)", "setting": "DSS-induced colitis [4]; Day 7", "result": "the protection was not statistically significant"}, {"measurement": "protective effect against DSS-induced colitis", "setting": "DSS-induced colitis [4]; oral, 10 mg/kg to 30 mg/kg", "result": "showed protective effect against DSS-induced colitis"}, {"measurement": "significance of protective effect by day", "setting": "DSS-induced colitis [4]; oral, 10 mg/kg to 30 mg/kg", "result": "statistically significant on days 3, 4, 5 and 7"}, {"measurement": "estimated ED50", "setting": "DSS-induced colitis [4]; oral, DSS model, WinNonlin", "result": "approximately 15 mg/kg"}, {"measurement": "estimated Emax", "setting": "DSS-induced colitis [4]; oral, DSS model, WinNonlin", "result": "~80", "unit": "% protection"}, {"measurement": "lower plasma levels in animals dosed 4 hours before TNBS", "setting": "[5]; > 6 hours after TNBS, vs dosing 1 hour before", "result": "approximately 30%"}, {"measurement": "time after which plasma concentrations begin to decline", "setting": "[5]; following oral administration", "result": "> 7", "unit": "h"}, {"measurement": "Tmax", "setting": "[5]; rat, plasma, following oral administration, read-out: time of peak plasma concentration", "result": "3 to 4", "unit": "h"}]}]}
